According to ChEMBL document CHEMBL3804804, “Synthesis and antimycobacterial activity of N-(2-aminopurin-6-yl) and N-(purin-6-yl) amino acids and dipeptides” (Bioorg Med Chem Lett, 2016):
Converted amounts (≈) assume the structure as drawn.

Tested on: Mycolicibacter terrae
Assay: Antimycobacterial activity against Mycobacterium terrae after 10 days by micro broth dilution method
Type: functional
Conditions: 240 h

Q: Which MIC does the source give for `CC(=O)Nc1nc(N2CCC[C@H]2C(=O)OC(C)(C)C)c2nc[nH]c2n1` here?
A: 6.25 µg/mL (≈ 18 µM)

Q: For `CC(=O)Nc1nc(NCC(=O)O)c2nc[nH]c2n1`, which MIC is on record?
A: 0.7 µg/mL (≈ 2.8 µM)

Q: For `CC(C)[C@H](Nc1nc(N)nc2[nH]cnc12)C(=O)O`, which MIC is on record?
A: 6.25 µg/mL (≈ 25 µM)

Q: For `CSCC[C@H](NC(=O)CNc1nc(N)nc2[nH]cnc12)C(=O)O.O`, which MIC is on record?
A: 3.1 µg/mL

Q: For `Nc1nc(NCC(=O)N[C@@H](CCC(=O)O)C(=O)O)c2nc[nH]c2n1`, which MIC is on record?
A: 0.35 µg/mL (≈ 1.04 µM)

Q: Which MIC does the source give for `COC(=O)[C@H](CCSC)NC(=O)CNc1nc(NC(C)=O)nc2[nH]cnc12` here?
A: 1.5 µg/mL (≈ 3.79 µM)

Q: For `COC(=O)CNc1nc(N)nc2[nH]cnc12.Cl.Cl`, which MIC is on record?
A: 6.25 µg/mL

Q: With `O.O=C(O)CC[C@H](NC(=O)CNc1ncnc2[nH]cnc12)C(=O)O` as the compound, how does the MIC read?
A: 0.7 µg/mL

Q: With `COC(=O)[C@H](Cc1ccccc1)NC(=O)CNc1ncnc2[nH]cnc12` as the compound, how does the MIC read?
A: 1.5 µg/mL (≈ 4.23 µM)

Q: Which MIC does the source give for `NNC(=O)c1ccncc1` [ISONIAZID] here?
A: 0.1 µg/mL (≈ 0.729 µM)

Q: Which MIC does the source give for `CC1COc2c(N3CCN(C)CC3)c(F)cc3c(=O)c(C(=O)O)cn1c23` (stereo unspecified) [OFLOXACIN] here?
A: 0.1 µg/mL (≈ 0.277 µM)

Tested on: not listed separately
Assay: Cytotoxicity against human FEH cells after 72 hrs by MTT assay
Type: cell-based
Conditions: not given

Q: With `CC(=O)Nc1nc(N2CCC[C@H]2C(=O)OC(C)(C)C)c2nc[nH]c2n1` as the compound, how does the IC50 read?
A: > 50 µM

Q: Which IC50 does the source give for `CC(=O)Nc1nc(NCC(=O)O)c2nc[nH]c2n1` here?
A: > 50 µM

Q: For `O.O=C(CNc1ncnc2[nH]cnc12)N[C@@H](Cc1ccccc1)C(=O)O`, which IC50 is on record?
A: > 50 µM

Q: With `CC(C)[C@H](Nc1nc(N)nc2[nH]cnc12)C(=O)O` as the compound, how does the IC50 read?
A: > 50 µM

Q: For `CSCC[C@H](NC(=O)CNc1nc(N)nc2[nH]cnc12)C(=O)O.O`, which IC50 is on record?
A: > 50 µM

Q: For `Nc1nc(NCC(=O)N[C@@H](CCC(=O)O)C(=O)O)c2nc[nH]c2n1`, which IC50 is on record?
A: > 50 µM

Q: Which IC50 does the source give for `COC(=O)[C@H](CCSC)NC(=O)CNc1nc(NC(C)=O)nc2[nH]cnc12` here?
A: > 50 µM

Q: Which IC50 does the source give for `COC(=O)CNc1nc(N)nc2[nH]cnc12.Cl.Cl` here?
A: > 50 µM

Q: Which IC50 does the source give for `O.O=C(O)CC[C@H](NC(=O)CNc1ncnc2[nH]cnc12)C(=O)O` here?
A: > 50 µM

Q: Which IC50 does the source give for `COC(=O)[C@H](Cc1ccccc1)NC(=O)CNc1ncnc2[nH]cnc12` here?
A: > 50 µM

Tested on: Mycobacterium tuberculosis
Assay: Antimycobacterial activity against Mycobacterium tuberculosis H37Rv after 10 days by micro broth dilution method
Type: functional
Conditions: 240 h

Q: With `O=C(O)CCNc1[nH]cnc2ncnc1-2` as the compound, how does the MIC read?
A: 12.5 µg/mL (≈ 60.3 µM)

Q: With `O=C(O)CCCNc1ncnc2[nH]cnc12` as the compound, how does the MIC read?
A: 12.5 µg/mL (≈ 56.5 µM)

Q: Which MIC does the source give for `CC(=O)Nc1nc(N[C@H](C(=O)OC(C)(C)C)C(C)C)c2nc[nH]c2n1` here?
A: 12.5 µg/mL (≈ 35.9 µM)

Q: With `COC(=O)[C@H](CCSC)NC(=O)CNc1ncnc2[nH]cnc12` as the compound, how does the MIC read?
A: 12.5 µg/mL (≈ 36.9 µM)

Q: For `C[C@H](NC(=O)CNc1nc(N)nc2[nH]cnc12)C(=O)O.O`, which MIC is on record?
A: 6.25 µg/mL

Q: For `CC(C)C[C@H](NC(=O)CNc1ncnc2[nH]cnc12)C(=O)O.O`, which MIC is on record?
A: 12.5 µg/mL

Q: For `C[C@H](Nc1nc(N)nc2[nH]cnc12)C(=O)O`, which MIC is on record?
A: 12.5 µg/mL (≈ 56.3 µM)

Q: With `CC(=O)Nc1nc(N[C@@H](C)C(=O)OC(C)(C)C)c2nc[nH]c2n1` as the compound, how does the MIC read?
A: 12.5 µg/mL (≈ 39 µM)

Q: Which MIC does the source give for `CC(=O)Nc1nc(N2CCC[C@H]2C(=O)OC(C)(C)C)c2nc[nH]c2n1` here?
A: 6.25 µg/mL (≈ 18 µM)

Q: With `C[C@H](NC(=O)CNc1ncnc2[nH]cnc12)C(=O)O.O` as the compound, how does the MIC read?
A: 12.5 µg/mL

Q: For `CSCC[C@H](NC(=O)CNc1ncnc2[nH]cnc12)C(=O)O.O`, which MIC is on record?
A: 12.5 µg/mL

Q: Which MIC does the source give for `CC(=O)Nc1nc(N[C@@H](Cc2ccccc2)C(=O)OC(C)(C)C)c2nc[nH]c2n1` here?
A: 12.5 µg/mL (≈ 31.5 µM)

Q: For `CC(=O)Nc1nc(NCC(=O)O)c2nc[nH]c2n1`, which MIC is on record?
A: 0.7 µg/mL (≈ 2.8 µM)

Q: For `CC(C)[C@H](NC(=O)CNc1nc(N)nc2[nH]cnc12)C(=O)O.O.O`, which MIC is on record?
A: 12.5 µg/mL

Q: Which MIC does the source give for `O.O=C(CNc1ncnc2[nH]cnc12)N[C@@H](Cc1ccccc1)C(=O)O` here?
A: 3.1 µg/mL

Q: With `CC(C)[C@H](Nc1nc(N)nc2[nH]cnc12)C(=O)O` as the compound, how does the MIC read?
A: 6.25 µg/mL (≈ 25 µM)

Q: For `COC(=O)[C@H](CC(C)C)NC(=O)CNc1ncnc2[nH]cnc12`, which MIC is on record?
A: 12.5 µg/mL (≈ 39 µM)

Q: For `COC(=O)[C@@H](NC(=O)CNc1nc(NC(C)=O)nc2[nH]cnc12)C(C)C`, which MIC is on record?
A: 12.5 µg/mL (≈ 34.4 µM)

Q: Which MIC does the source give for `CSCC[C@H](NC(=O)CNc1nc(N)nc2[nH]cnc12)C(=O)O.O` here?
A: 3.1 µg/mL

Q: For `COC(=O)[C@H](C)NC(=O)CNc1ncnc2[nH]cnc12`, which MIC is on record?
A: 12.5 µg/mL (≈ 44.9 µM)

Q: For `COC(=O)[C@H](C)NC(=O)CNc1nc(NC(C)=O)nc2[nH]cnc12.O`, which MIC is on record?
A: 12.5 µg/mL

Q: With `Nc1nc(NCC(=O)N[C@@H](CCC(=O)O)C(=O)O)c2nc[nH]c2n1` as the compound, how does the MIC read?
A: 0.7 µg/mL (≈ 2.08 µM)

Q: For `Nc1nc(NCC(=O)N[C@@H](CC(=O)O)C(=O)O)c2nc[nH]c2n1`, which MIC is on record?
A: 12.5 µg/mL (≈ 38.7 µM)

Q: Which MIC does the source give for `O=C(O)CNc1ncnc2[nH]cnc12` here?
A: 6.25 µg/mL (≈ 32.4 µM)

Q: Which MIC does the source give for `COC(=O)CC[C@H](NC(=O)CNc1nc(NC(C)=O)nc2[nH]cnc12)C(=O)OC` here?
A: 12.5 µg/mL (≈ 30.7 µM)

Q: With `Nc1nc(NCC(=O)N[C@@H](Cc2ccccc2)C(=O)O)c2nc[nH]c2n1.O.O` as the compound, how does the MIC read?
A: 6.25 µg/mL

Q: With `COC(=O)[C@H](CC(C)C)NC(=O)CNc1nc(NC(C)=O)nc2[nH]cnc12` as the compound, how does the MIC read?
A: 12.5 µg/mL (≈ 33.1 µM)

Q: Which MIC does the source give for `COC(=O)[C@H](Cc1ccccc1)NC(=O)CNc1nc(NC(C)=O)nc2[nH]cnc12` here?
A: 12.5 µg/mL (≈ 30.4 µM)

Q: For `COC(=O)[C@H](CCSC)NC(=O)CNc1nc(NC(C)=O)nc2[nH]cnc12`, which MIC is on record?
A: 3.1 µg/mL (≈ 7.84 µM)

Q: For `Nc1nc(N[C@@H](Cc2ccccc2)C(=O)O)c2nc[nH]c2n1`, which MIC is on record?
A: 12.5 µg/mL (≈ 41.9 µM)

Q: Which MIC does the source give for `CC(C)[C@H](NC(=O)CNc1ncnc2[nH]cnc12)C(=O)O.O` here?
A: 12.5 µg/mL

Q: Which MIC does the source give for `Nc1nc(N2CCC[C@H]2C(=O)O)c2nc[nH]c2n1` here?
A: 12.5 µg/mL (≈ 50.4 µM)

Q: For `COC(=O)CNc1nc(N)nc2[nH]cnc12.Cl.Cl`, which MIC is on record?
A: 6.25 µg/mL

Q: For `COC(=O)C[C@H](NC(=O)CNc1nc(NC(C)=O)nc2[nH]cnc12)C(=O)OC`, which MIC is on record?
A: 12.5 µg/mL (≈ 31.8 µM)

Q: For `O=C(O)CCCCCNc1ncnc2[nH]cnc12`, which MIC is on record?
A: 12.5 µg/mL (≈ 50.1 µM)

Q: For `Nc1nc(NCC(=O)O)c2nc[nH]c2n1`, which MIC is on record?
A: 12.5 µg/mL (≈ 60 µM)

Q: For `COC(=O)[C@@H](NC(=O)CNc1ncnc2[nH]cnc12)C(C)C`, which MIC is on record?
A: 12.5 µg/mL (≈ 40.8 µM)

Q: With `CC(C)C[C@H](NC(=O)CNc1nc(N)nc2[nH]cnc12)C(=O)O.O` as the compound, how does the MIC read?
A: 12.5 µg/mL

Q: Which MIC does the source give for `CC(=O)Nc1nc(N[C@@H](CC(=O)OC(C)(C)C)C(=O)OC(C)(C)C)c2nc[nH]c2n1` here?
A: 12.5 µg/mL (≈ 29.7 µM)

Q: Which MIC does the source give for `O.O=C(O)CC[C@H](NC(=O)CNc1ncnc2[nH]cnc12)C(=O)O` here?
A: 0.7 µg/mL

Q: Which MIC does the source give for `COC(=O)[C@H](Cc1ccccc1)NC(=O)CNc1ncnc2[nH]cnc12` here?
A: 1.5 µg/mL (≈ 4.23 µM)

Q: With `COC(=O)CC[C@H](NC(=O)CNc1ncnc2[nH]cnc12)C(=O)OC` as the compound, how does the MIC read?
A: 12.5 µg/mL (≈ 35.7 µM)

Q: With `NNC(=O)c1ccncc1` [ISONIAZID] as the compound, how does the MIC read?
A: 0.1 µg/mL (≈ 0.729 µM)

Q: For `CC1COc2c(N3CCN(C)CC3)c(F)cc3c(=O)c(C(=O)O)cn1c23` (stereo unspecified) [OFLOXACIN], which MIC is on record?
A: 0.1 µg/mL (≈ 0.277 µM)

Tested on: Mycobacterium avium
Assay: Antimycobacterial activity against Mycobacterium avium after 10 days by micro broth dilution method
Type: functional
Conditions: 240 h

Q: With `CC(=O)Nc1nc(N2CCC[C@H]2C(=O)OC(C)(C)C)c2nc[nH]c2n1` as the compound, how does the MIC read?
A: 6.25 µg/mL (≈ 18 µM)

Q: Which MIC does the source give for `CC(=O)Nc1nc(NCC(=O)O)c2nc[nH]c2n1` here?
A: 0.7 µg/mL (≈ 2.8 µM)

Q: With `CC(C)[C@H](Nc1nc(N)nc2[nH]cnc12)C(=O)O` as the compound, how does the MIC read?
A: 6.25 µg/mL (≈ 25 µM)

Q: For `CSCC[C@H](NC(=O)CNc1nc(N)nc2[nH]cnc12)C(=O)O.O`, which MIC is on record?
A: 3.1 µg/mL

Q: Which MIC does the source give for `Nc1nc(NCC(=O)N[C@@H](CCC(=O)O)C(=O)O)c2nc[nH]c2n1` here?
A: 0.35 µg/mL (≈ 1.04 µM)

Q: For `COC(=O)[C@H](CCSC)NC(=O)CNc1nc(NC(C)=O)nc2[nH]cnc12`, which MIC is on record?
A: 3.1 µg/mL (≈ 7.84 µM)

Q: For `COC(=O)CNc1nc(N)nc2[nH]cnc12.Cl.Cl`, which MIC is on record?
A: 6.25 µg/mL

Q: For `O.O=C(O)CC[C@H](NC(=O)CNc1ncnc2[nH]cnc12)C(=O)O`, which MIC is on record?
A: 0.7 µg/mL

Q: For `COC(=O)[C@H](Cc1ccccc1)NC(=O)CNc1ncnc2[nH]cnc12`, which MIC is on record?
A: 1.5 µg/mL (≈ 4.23 µM)

Q: Which MIC does the source give for `NNC(=O)c1ccncc1` [ISONIAZID] here?
A: 0.1 µg/mL (≈ 0.729 µM)

Q: For `CC1COc2c(N3CCN(C)CC3)c(F)cc3c(=O)c(C(=O)O)cn1c23` (stereo unspecified) [OFLOXACIN], which MIC is on record?
A: 0.1 µg/mL (≈ 0.277 µM)
